Bridge positions count the residues as written; N and C are the ends. Square brackets hold non-standard residues; d marks the D form. Peptide text beside a SMILES is read from it. 2Nal = N[C@@H](Cc1ccc2ccccc2c1)C(=O)O; Lys(iPr) = CC(C)NCCCC[C@H](N)C(=O)O
Experiment: Half-life in mice
Conditions: mouse, in vivo, read-out: half-life (T½) (converted)
Method: Pharmacologic properties such as compound bioavailability, in vivo metabolic stability, and pharmacokinetic/pharmacodynamic properties can be determined by methods well known in the art of drug development. […] For example, in mice, the half-life (T½) of the compound of Example 58 is about 3 hours. With respect to pharmacodynamic properties, preferred compounds induce prolonged neutrophil and white blood cell mobilization in mice. For example, the compound of Example 25 induces a significant increase of neutrophils and white blood cells in peripheral blood for at least 6 hours after single dose subcutaneous administration at 5 mg/kg in mice.

In the case of `CC(C)NCCCC[C@@H]1NC(=O)[C@H](Cc2ccc(O)cc2)NC(=O)[C@H](Cc2ccccc2)NC(=O)CC[C@H](C(=O)N[C@@H](CCCNC(=N)N)C(N)=O)NC(=O)CNC(=O)[C@H](Cc2ccc3ccccc3c2)NC(=O)[C@@H](CCCNC(=N)N)NC1=O` [Example 58, cyclo[Phe-Tyr-Lys(iPr)-DArg-2Nal-Gly-DGlu]-Arg-NH2] (FY[Lys(iPr)][dR][2Nal]G[dE]R-NH2; lactam N-7), the half-life is reported as ~3 h.

Reference: patent USRE42274E1, “Cyclic peptide CXCR4 antagonists” (Eli Lilly and Company, priority 2007, dated 2011)
